According to PMC10319855, “Unravelling the hidden power of esterases for biomanufacturing of short-chain esters” (Scientific Reports, 2023):

Tests used:
Conditions in all cases: crude E. coli lysate 70 µg/mL protein, 0.1 M Na-phosphate pH 7, 37 °C
CE = target: T1, CE (Brettanomyces bruxellensis, UniProt A0A7D9GZZ0); assay: p-nitrophenol release, absorbance […] nm; assay type: biochemical
T1 construct: gene DEBR0S1_34310G; crude lysate

AcAlT = target: T2, AcAlT (Komagataella phaffii, UniProt C4QX24); assay: p-nitrophenol release, absorbance […] nm; assay type: biochemical
T2 construct: gene PAS_chr1-1_0419; codon-optimized gene in pET15b (pAPS07), E. coli BL21-DE3 strain SSL26; crude lysate
T2 sequence (C4QX24 1-452): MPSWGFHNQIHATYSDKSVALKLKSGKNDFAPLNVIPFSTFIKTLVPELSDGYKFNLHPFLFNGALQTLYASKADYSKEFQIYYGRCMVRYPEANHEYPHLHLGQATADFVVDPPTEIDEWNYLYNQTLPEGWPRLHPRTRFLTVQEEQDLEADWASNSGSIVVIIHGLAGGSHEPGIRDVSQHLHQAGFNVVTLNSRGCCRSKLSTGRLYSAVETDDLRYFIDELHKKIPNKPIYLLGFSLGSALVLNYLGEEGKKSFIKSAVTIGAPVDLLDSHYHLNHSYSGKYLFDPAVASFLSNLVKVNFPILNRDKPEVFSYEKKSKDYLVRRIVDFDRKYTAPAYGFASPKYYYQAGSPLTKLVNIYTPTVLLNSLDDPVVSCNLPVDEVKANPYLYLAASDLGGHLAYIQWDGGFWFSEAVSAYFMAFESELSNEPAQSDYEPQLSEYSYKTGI

EEB1 = EEB1 (Saccharomyces cerevisiae, UniProt Q02891)
Sequence of EEB1 (Q02891 whole entry): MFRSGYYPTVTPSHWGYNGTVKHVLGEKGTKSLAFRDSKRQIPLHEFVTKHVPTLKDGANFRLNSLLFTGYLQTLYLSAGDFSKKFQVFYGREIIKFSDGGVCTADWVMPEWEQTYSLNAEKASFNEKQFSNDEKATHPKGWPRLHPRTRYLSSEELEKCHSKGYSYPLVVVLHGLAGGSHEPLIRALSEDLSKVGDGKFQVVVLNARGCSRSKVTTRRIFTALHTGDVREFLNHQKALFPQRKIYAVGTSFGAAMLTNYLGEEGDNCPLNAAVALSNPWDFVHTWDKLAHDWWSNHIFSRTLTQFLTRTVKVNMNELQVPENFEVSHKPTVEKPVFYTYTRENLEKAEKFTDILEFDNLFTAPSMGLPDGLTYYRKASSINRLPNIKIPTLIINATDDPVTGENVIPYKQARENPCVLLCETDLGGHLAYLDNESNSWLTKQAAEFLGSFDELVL

tEstA = target: T3, tEstA (Pseudomonas aeruginosa, UniProt O33407); assay: p-nitrophenol release, absorbance […] nm; assay type: biochemical
T3 construct: gene estA; crude lysate
T3 sequence (O33407 25-646): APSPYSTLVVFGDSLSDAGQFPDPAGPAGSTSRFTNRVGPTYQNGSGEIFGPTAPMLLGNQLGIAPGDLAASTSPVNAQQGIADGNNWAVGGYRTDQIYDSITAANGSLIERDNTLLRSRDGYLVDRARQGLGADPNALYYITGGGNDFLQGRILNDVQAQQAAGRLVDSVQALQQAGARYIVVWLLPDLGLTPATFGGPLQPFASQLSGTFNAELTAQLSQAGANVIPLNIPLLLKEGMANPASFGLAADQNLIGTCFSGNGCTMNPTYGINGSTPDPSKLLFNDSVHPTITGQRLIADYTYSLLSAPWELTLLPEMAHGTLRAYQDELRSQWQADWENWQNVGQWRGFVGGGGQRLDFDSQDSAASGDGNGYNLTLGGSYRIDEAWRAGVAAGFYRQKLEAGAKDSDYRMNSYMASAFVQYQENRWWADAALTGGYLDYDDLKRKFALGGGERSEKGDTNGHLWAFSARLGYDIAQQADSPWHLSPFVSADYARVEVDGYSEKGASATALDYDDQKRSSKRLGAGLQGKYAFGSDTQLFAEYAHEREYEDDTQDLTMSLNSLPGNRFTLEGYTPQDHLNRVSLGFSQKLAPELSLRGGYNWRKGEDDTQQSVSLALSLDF

T1 sequence (A0A7D9GZZ0 entry or part of it): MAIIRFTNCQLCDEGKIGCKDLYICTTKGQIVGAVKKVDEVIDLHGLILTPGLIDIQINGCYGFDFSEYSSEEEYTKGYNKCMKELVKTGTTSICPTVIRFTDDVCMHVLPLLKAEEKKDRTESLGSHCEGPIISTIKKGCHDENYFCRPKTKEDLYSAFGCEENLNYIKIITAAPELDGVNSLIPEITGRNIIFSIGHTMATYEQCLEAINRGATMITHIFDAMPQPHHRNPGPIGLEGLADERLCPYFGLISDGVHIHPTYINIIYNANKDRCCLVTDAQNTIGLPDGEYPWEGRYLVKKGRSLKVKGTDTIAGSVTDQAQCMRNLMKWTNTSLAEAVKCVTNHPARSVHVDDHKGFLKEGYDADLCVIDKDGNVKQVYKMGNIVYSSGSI

CC(=O)Oc1ccc([N+](=O)[O-])cc1 [p-nitrophenyl acetate]
KM (CE): CE and tEstA, on the other hand, indicated relatively moderate hydrolysis activity with higher KM | KM (AcAlT): AcAlT, despite being acyltransferase, showed the second highest efficiency and relatively lower KM | KM (EEB1): KM values revealed that EEB1 exhibited the highest catalytic efficiency for pNPA hydrolysis | KM (tEstA): CE and tEstA, on the other hand, indicated relatively moderate hydrolysis activity with higher KM
